# Where two headings read alike, the source gives them in different places.
# Tested on: Alicyclobacillus acidoterrestris (JCM catalogue number 21547, IAM Culture Collection no. 15086)
# Experiment: MIC against Alicyclobacillus acidoterrestris in apple juice (OD600 and CFU counting)
# Assay type: cell-based
# Conditions: 37° C.; for MIC: Alicyclobacillus acidoterrestris, 100% apple juice
# Experimental: The fractions collected in Example 4, as well as Fraction 1 and nisin, a preservative presently in common use in the industry, were tested for activity by incubating for the times indicated in the table below with Alicyclobacillus acidoterrestris (JCM catalogue number 21547, IAM Culture Collection no. 15086) in apple juice. The minimum inhibitory concentration (MIC) was determined by optical density measurements at 600 nm, and by counting colony forming units (CFU) as follows: after four days of incubation at 37° C., juice samples were serially diluted in 10-fold increments (10-fold, 100-fold, 1000-fold, etc.) and plated on Potato Dextrose Agar (PDA). Plates were incubated at 45° C. for at least 48 hours, and colonies were counted to determine CFU/ml.
# [1] = 48 h, 2 days of incubation, read-out: MIC (μg/ml) in 100% apple juice 2 days of incubation
# [2] = 72 h, 3 days of incubation, read-out: MIC (μg/ml) in 100% apple juice 3 days of incubation
# [3] = 120 h, 5 days of incubation, read-out: MIC (μg/ml) in 100% apple juice 5 days of incubation
# [4] = 168 h, 7 days of incubation, read-out: MIC (μg/ml) in 100% apple juice 7 days of incubation
MIC [1] [µg/mL],MIC [2] [µg/mL],MIC [3] [µg/mL],MIC [4] [µg/mL],Compound,MIC (μg/ml) in 100% apple juice 2 days of incubation (2 days of incubation) [µg/mL],MIC (μg/ml) in 100% apple juice 3 days of incubation (3 days of incubation) [µg/mL],MIC (μg/ml) in 100% apple juice 5 days of incubation (5 days of incubation) [µg/mL],MIC (μg/ml) in 100% apple juice 7 days of incubation (7 days of incubation) [µg/mL]
1.25,1.25,1.25,1.25,"CC1=CCC[C@@H]2[C@@](C)(CC/C(C)=C/C(=O)O)[C@H](C)CC[C@@]12C (single isomer, unassigned) [Sample 6, Kolavenic acid]",–,–,–,–
1.25,1.25,1.25,1.25,"C=C1CC[C@@H]2C(C)(C)CCC[C@@]2(C)[C@@H]1CC/C(C)=C/C(=O)O (single isomer, unassigned) [Sample 7, copalic acid]",–,–,–,–
–,–,–,–,"CC(=O)OC1CC2(C)C(C(=O)O)=CCCC2C(C)(CCc2ccoc2)C1C (stereo not drawn) [Sample 3, 7-α-acetoxyhardwickiic acid]",2.5,5,5,5

# From patent US11918013B2, “Composition for inactivation of gram-positive bacteria and bacterial spores and methods of making and using same” (RESORCIX LTD., priority 2018, dated 2024)
